“And” between values parts separate entries of the source, which are not always exact repeats. Equal entries are not always repeated.
Tests used:
RslTpt1 [1] = molecular target: T1, RslTpt1 (Runella slithyformis, UniProt A0A7U3ZK32); assay: Isothermal titration calorimetry; assay type: binding
T1 sequence (A0A7U3ZK32 5-178): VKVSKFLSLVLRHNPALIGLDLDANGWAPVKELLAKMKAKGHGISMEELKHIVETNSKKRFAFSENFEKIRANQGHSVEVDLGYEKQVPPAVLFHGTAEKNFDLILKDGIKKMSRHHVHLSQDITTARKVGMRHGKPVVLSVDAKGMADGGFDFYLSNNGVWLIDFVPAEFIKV

RslTpt1 [2] = molecular target: T1, RslTpt1; assay: NMR ligand-induced chemical shift perturbations on RslTpt1; assay type: binding; details: for backbone chemical shift perturbations induced on RslTpt1 (result in words): 15N,1H HSQC, 10 molar equivalents of ligand

Structure (SMILES)	fold less affinity than NAD^+ (RslTpt1 [1]; ratio of ITC KD values, NADP^+ versus NAD^+) [fold]	Kd (RslTpt1 [1]; read-out: apparent KD, ITC, 17°C, approximate value) [µM]	average backbone amide chemical shift perturbation Δδ, N-lobe (RslTpt1 [2]; 15N,1H resonances, 4 molar equivalents of NADP^+)	backbone chemical shift perturbations induced on RslTpt1 (result in words) (RslTpt1 [2])
NC(=O)c1ccc[n+]([C@@H]2O[C@H](COP(=O)([O-])OP(=O)(O)OC[C@H]3O[C@@H](n4cnc5c(N)ncnc54)[C@H](OP(=O)(O)O)[C@@H]3O)[C@@H](O)[C@H]2O)c1 [NADP^+]	~30	~1000	0.02 ± 0.03 ppm and 0.02 ppm	
NC(=O)c1ccc[n+]([C@@H]2O[C@H](COP(=O)([O-])O)[C@@H](O)[C@H]2O)c1 [NMN, β-nicotinamide mononucleotide]				no significant CSPs
NC(=O)c1cccnc1 [Nicotinamide, nicotinamide]				no significant CSPs
